We go through 3 compounds from patent publication US11474106B2, “Methods for cytotoxic chemotherapy-based predictive assays” (ACCELERATED MEDICAL DIAGNOSTICS, INC., priority 2015, dated 2022).

Series [1] is classed as physicochemical. The conditions noted are these: 0.5 mg/mL in water.
Protocol: Radiolabeled carboplatin containing C^14 carbon atoms in the cyclobutane dicarboxylic acid group was formulated for human use as a sterile, pyrogen free solution at 5 mg/mL in water.
The test system of another series is PBMC. The series can be described thus: Microdose-induced oxaliplatin-DNA adduct frequency by AMS. In kind it is in vivo, human. How it is done: The plasma samples were additionally processed to isolate PBMC, and the DNA was extracted and analyzed using AMS to calculate the oxaliplatin-DNA adduct frequency (both monoadducts and diadducts combined) (FIG. 17B). […] These adduct levels then decrease substantially out to 48 hours post microdosing. […] Overall, the plasma PK and time course of oxaliplatin-DNA adduct formation and repair in PBMC allowed determination of the best time to dose patients prior to biopsy in order to maximize the oxaliplatin-DNA adduct formation, allow for repair in those patients with high repair capacity, minimize the risk of radioactive contamination of PBMC and tumor samples, and also minimize the risk of radioactive contamination of the operating room by blood-borne radiocarbon.
Plasma samples were collected, filtered, and counted by liquid scintillation counting to determine plasma oxaliplatin levels. […] The range of microdose-induced adduct levels (frequencies) for the three colorectal patients was 0.1-6 adducts per 10^8 nt.

Series [2] can be described thus: Human plasma pharmacokinetics of oxaliplatin microdose. The format is in vivo. The conditions noted are these: metastatic breast cancer patient, IV microdose.
Protocol: Single agent oxaliplatin chemotherapy is given by IV at a personalized dose of 130 mg/m^2 of body surface area using the Du Bois and Du Bois formula (Du Bois, D., and E. F. Du Bois. “A formula to estimate the approximate surface area if height and weight be known. 1916.” Nutrition (Burbank, Los Angeles County, Calif.) 5.5 (1989): 303).
Radiolabeled oxaliplatin containing C^14 carbon atoms in the cyclohexane ring was formulated for human use as a sterile, pyrogen free solution at 0.5 mg/mL in water. […] Unlabeled oxaliplatin and [^14C]oxaliplatin were mixed just before dosing to achieve the required microdose, and injected through the peripheral vein at one arm. Peripheral blood specimens were drawn into BD Vacutainer CPT' tubes with sodium heparin from the other arm at specific time points before and after the administration of the microdose. Plasma samples collected at −5 min, 5 min, 15 min, 30 min, 2 h, 4 h, 8 h, 24 h, and 48 h post microdose injection were analyzed by liquid scintillation counting (FIG. 17A).
In series [3] the test system is 5637. Description: Oxaliplatin-DNA adduct formation and repair by AMS. The format is cell-based, human. The procedure:
(§1) To characterize the oxaliplatin-DNA adduct frequency in these cell lines, cells from each cell line were seeded in 60-mm dishes at a density of 1×10^6 cells/dish and allowed to attach overnight in a 37° C. humidified atmosphere containing 5% CO2. […] The cells were then washed twice with phosphate-buffered solution (PBS) and maintained thereafter with oxaliplatin-free culture media. DNA was harvested at hours 0, 2, 4, 8, 24, 28 and 48 hours using a Promega Wizard DNA Purification Kit. Ten micrograms of DNA per sample was converted to graphite and measured by AMS for ^14C quantification. Triplicate sets of AMS experiments were performed and the data was plotted as time vs oxaliplatin-DNA adducts per 10^8 nt.
(§2) Statistics were calculated with n=3 for each cell line. ANOVA analysis of IC50 and AUC data were based on a one-sided t-test.

The next series deals with 5637R. Description: Oxaliplatin-DNA adduct formation and repair by AMS. The format is cell-based, human. The procedure: as §1, §2
Series [4] deals with five bladder cancer cell lines (5637, T24, TCCSUP, HT1197, and J82). The series can be described thus: Oxaliplatin-DNA adducts by AMS in cell culture. The format is cell-based. The procedure:
(§3) The cell lines were purchased from the American Type Culture Collection (ATCC, Manassas, Va.) and cultured in the recommended media.
as §1, with “Cells” for “To characterize the oxaliplatin-DNA adduct frequency in these cell lines, cells from each cell line”, “24” for “24, 28 and 48”, “the modified” for “a Promega”, “procedure described previously.” for “DNA Purification Kit.”, “nt. […] Oxaliplatin-DNA monoadducts could be detected in all cell lines at all time points. […] Therefore, drug-DNA damage from microdoses of oxaliplatin are predictive of the extent of DNA modification caused by the therapeutic dose in cell culture.” for “nt.”

A further series has as its system cancer patients. Description: Patient toxicity related to the microdose. The format is in vivo, human. The conditions noted are these: IV microdose, 2.0×10^6 DPM/kg.
The next series concerns PDX Model BL0269. The series can be described thus: Drug-DNA adduct frequency in PDX tumor tissue by AMS. In kind it is in vivo, NSG mice. The source says:
(§4) Female NSG mice (5-8 weeks of age, body weight: 20 to 25 g) were obtained from Jackson Laboratories (CA, USA). All animals were kept under pathogen-free conditions and were allowed to acclimatize for at least 4 days prior to any experiments. PDX models bearing the indicated patient derived xenografts were created by subcutaneous injection at the flank of 1 mm^3 tumor tissue. To establish multiple PDXs to allow efficacy studies with multiple drugs, PDXs from passage 2-4 were minced into 1 mm^3 sections and injected subcutaneously into multiple mice. At least 3 mice were used for each treatment group. Tumors were allowed to grow to at about 100 mm^3 before being assessed for drug sensitivity or the induction of DNA adducts by the administration of a microdose or a therapeutic dose of labeled drug. To assess tumor response to chemotherapy, cisplatin was administered at 2 mg/kg IV every 7 days for a total of 3 cycles, or gemcitabine was administered at 150 mg/kg IP every 7 days for a total of 4 cycles. G/C combination chemotherapy consisted of the simultaneous administration of both drugs using the schema described above. Tumor growth was assessed by measuring palpable tumors with a caliper and calculating tumor volume. Drug-DNA adduct frequencies were measured in tumor tissue collected 24 hours after intravenous injection of labeled drug and stored at −80° C. until DNA isolation. DNA was isolated using a modified Wizard procedure (Promega), quantitated by spectrophotometry, and then stored frozen at −20° C. until AMS analysis. Ten micrograms of DNA per sample was converted to graphite and measured by AMS for 14C quantification as previously described.
(§5) NSG mice bearing the indicated PDX tumors were injected with a microdose of ^14C-labeled carboplatin (FIG. 22A) or ^14C-labeled gemcitabine (FIG. 22B). The microdose of ^14C-labeled carboplatin was 0.375 mg/kg carboplatin, 50,000 dpm/g. The microdose of ^14C-labeled gemcitabine was 0.092 mg/kg gemcitabine, 1000 dpm/g. The doses of each drug administered to the mice were chosen to target 1 μM in plasma concentration of carboplatin and 0.3 μM in plasma concentration of gemcitabine. These plasma concentrations represent 1% of the approximate peak plasma concentration during human chemotherapy. Animals were sacrificed after 24 h and drug-DNA adduct frequency was determined from collected tumor tissue by AMS measurements of ^14C in tumor DNA. Carboplatin DNA-adduct levels correlate with PDX model sensitivity to cisplatin at 24h after microdosing (FIG. 22A). […]
(§6) In this example we test whether gemcitabine/carboplatin (G/Carbo) combination therapy has an effect on the formation of drug-DNA adducts in this synergistic tumor model. […] Carboplatin-DNA monoadducts were measured in tumor tissue 24 h after dosing. […]

The subject of a further series is PDX Model BL0645. The series is described as above. The format is in vivo, NSG mice. As to conditions: 24 h.
Text: as §4, §5, §6

The test system of another series is PDX Model BL0293. The description is as above. In kind it is in vivo, NSG mice. As to conditions: microdose 0.092 mg/kg gemcitabine, 24 h.
Text: as §4, with “To assess tumor response to chemotherapy, cisplatin was administered at 2 mg/kg IV every 7 days for a total of 3 cycles, or gemcitabine was administered at 150 mg/kg IP every 7 days for a total of 4 cycles. G/C combination chemotherapy consisted of the simultaneous administration of both drugs using the schema described above.” left out, “described. […]” for “described.”

A further series relates to PDX Model BL0440. The series is described as above. The conditions noted are these: microdose 0.092 mg/kg gemcitabine, 24 h. In kind it is in vivo, NSG mice.
Text: as §4, with “To assess tumor response to chemotherapy, cisplatin was administered at 2 mg/kg IV every 7 days for a total of 3 cycles, or gemcitabine was administered at 150 mg/kg IP every 7 days for a total of 4 cycles. G/C combination chemotherapy consisted of the simultaneous administration of both drugs using the schema described above.” left out, “described. […]” for “described.”

In another series the test system is A549. Description: MTT assay (IC50). In kind it is cell-based, human. How it is done:
Six non-small cell lung cancer (NSCLC) cell lines were treated in culture with [^14C]carboplatin. Carboplatin-DNA monoadduct levels over time were determined by measuring ^14C content in genomic DNA with accelerator mass spectrometry (AMS). Cellular sensitivity to carboplatin and cisplatin was analyzed by the MTT assay (Henderson et al., International Journal of Cancer 2011).
Human NSCLC cell lines H23, H460, H727, HCC827, H1975, and A549 were purchased from ATCC and were cultured with the recommended medium. The MTT assay was performed as previously reported to determine the drug concentration required to inhibit cell growth by 50% (IC50) of cisplatin and carboplatin. [^14C]Carboplatin (at 53 mCi/mmol) was mixed with unlabeled carboplatin to achieve the specific activities required for microdoses and therapeutic doses. Table 1 lists the six NSCLC cell lines and summarizes their IC50 characteristics, induced carboplatin-DNA monoadducts when treated with [^14C]carboplatin, and p and r^2 values for correlation analysis to the IC50 concentrations.
A general note: Tetrazolium assays rely on reduction of a dye to a coloured formazan, in cell work by metabolically active cells.

The test system of series [5] is 5637. The series can be described thus: MTT assay (IC50). In kind it is cell-based, human. How it is done:
Thus, we measured the IC50 of the six NSCLC cell lines from Example 2 to both cisplatin and carboplatin to determine if the sensitivity of these six NSCLC cell lines to the two drugs are correlated.
as §3
Drug-DNA adduct formation and repair was measured by accelerator mass spectrometry.
These two cell lines were also cultured with a range of concentrations of cisplatin, carboplatin, gemcitabine, doxorubicin, methotrexate and vinblastine for 72 hours to determine IC50 for these other drugs (FIG. 16C). These drugs were chosen because of their frequent use in the treatment of bladder cancer.

Where [6] appears, read: 24 hour culture without oxaliplatin.

Molecules are shown by their SMILES. A value given as a limit tells only on which side of the number the result lay.

Protocol for cancer patients: Radiolabeled carboplatin containing C^14 carbon atoms in the cyclobutane dicarboxylic acid group was formulated for human use as a sterile, pyrogen free solution at 5 mg/mL in water. […] Microdoses of the [^14C]Carboplatin were administered to human cancer patients as a diagnostic reagent, followed by full dose platinum-based chemotherapy and evaluation of response. Within four weeks of the [^14C]carboplatin microdose, these patients received standard of care chemotherapy for their disease, which included either carboplatin or cisplatin. […] Toxicity of the [^14C]carboplatin diagnostic reagent administered as a microdose was assessed using Common Terminology Criteria for Adverse Events (CTCAE).
The dose of carboplatin in the diagnostic microdose was chosen to be sub-toxic and non-therapeutic, to minimize patient chemical and radiation exposure, and to result in AMS measurable carboplatin-DNA monoadducts. Nineteen patients have been administered at least one microdose of [^14C]carboplatin via IV infusion as a diagnostic reagent. Patient toxicity related to the microdose was monitored from the time of IV microdose until the patients received their first chemotherapy.

Turning to `N[C@@H]1CCCC[14C@H]1N.O=C([O-])C(=O)[O-].[Pt+2]` [[^14C]oxaliplatin], the stability to freeze/thaw entry in series [1] is listed as “stable to free/thaw with no observed precipitation”. Besides, the “loss of radiopurity per year” value in [1] (storage at −20° C.) is on record as less than 2%. Besides, the “maximum oxaliplatin-DNA adducts in PBMC” value with PBMC (metastatic breast cancer patient, microdose, first 4 hours) came out at 8 adducts per 10^8 nt. Also, the “range of microdose-induced adduct levels (frequencies)” value in the series on PBMC (three colorectal patients, PBMC) is on record as 0.1-6 adducts per 10^8 nt. Moreover, the “T1/2 (α), first (fast) phase” value in series [2] came out at 13.3 min. Also, the “oxaliplatin-DNA adducts at 24 hours” value in the series with 5637 [3] (10 μM for 24 hours) is given as 710.0±32.2 adducts per 10^8 nucleotide; in the series with 5637R (10 μM for 24 hours) it was 259.2±37.3 adducts per 10^8 nucleotide. For the same compound, the repair rate with 5637 [3] (setting [6]) is on record as 1.34±0.30 adducts per 10^8 nucleotides-hour; with 5637R (setting [6]), 3.48±0.15 adducts per 10^8 nucleotide-hour. The “area under curve (AUC) of oxaliplatin-DNA adducts” value in the series on 5637 [3] (48 hour study time period) is 27,720±2,985 adducts per 10^8 nucleotide-hour; in the series on 5637R (48 hour study time period) it was 9,426±2457 adducts per 10^8 nucleotide-hour. Besides, the “DNA damage concentrations (total oxaliplatin-DNA adducts)” value is 50-100 oxaliplatin-DNA adducts per 10^8 nt in series [4] (microdose, 0.1 μM oxaliplatin for 4 hours) and 5,000-10,000 oxaliplatin-DNA adducts per 10^8 nt in series [4] (therapeutic dose, 10 μM oxaliplatin for 4 hours). In the series on cancer patients, the “tolerability of the radiolabeled microdose” value is reported as “well tolerated”.

Regarding `Nc1ccn([C@@H]2O[C@H](CO)[C@@H](O)C2(F)F)[14c](=O)n1` [[^14C]gemcitabine, 2′-Deoxy-2′,2′-difluorocytidine, [cytosine-2-^14C]-], the gemcitabine-DNA adduct levels in the series with PDX Model BL0269 (BL0269 control experiment (FIG. 23F), microdose gemcitabine 0.092 mg/kg, alone or with carboplatin 0.375 mg/kg) was 2.44±0.492 adducts per 10^8 nucleotides. In addition, the gemcitabine adduct levels is 3.17±0.278 with PDX Model BL0269 (BL0269 tumor DNA, microdose 0.092 mg/kg gemcitabine, 24 h (FIG. 22B)); 2.44±0.880 adducts per 10^8 nucleotides in the series on PDX Model BL0645 (BL0645 tumor DNA, microdose 0.092 mg/kg gemcitabine, alone or with carboplatin 0.375 mg/kg); 10.0±5.92 in the series on PDX Model BL0293; 13.1±10.2 in the series on PDX Model BL0440. Moreover, the gemcitabine adduct level in the series on PDX Model BL0645 (BL0645, therapeutic dose gemcitabine 9.2 mg/kg, alone or with carboplatin 37.5 mg/kg) was 169.2±9.129 adducts per 10^8 nucleotides.

A word on the IC50: it is the concentration at which inhibition is half-maximal. Regarding `N.N.[Cl][Pt][Cl]` [cisplatin], the 50% inhibitory concentration (IC50) in the series on A549 was 26300 ± 9260 nM; with 5637 [5] (5637 (Table 2)), 2430 ± 450 nM; with 5637 [5] (5637 (parental, Example 11), MTT, 72 hours), 590 nM.
